Measured values as given in PMC8772941 (Biomedicines, 2021).
Like-named read-outs stand apart in the source and are kept apart here. Marks after values point to notes of the source that are not given here.

How the values were obtained:
D2R S193A = system: D2R S193A; design: method as in PMID 29325769; settings: log value from radioligand binding; cited from earlier work
GIRK1/4 = target: T1, GIRK1/4 (Homo sapiens, UniProt P48544+P48549); assay: Control: direct inhibition of GIRK currents in oocytes expressing GIRK1/4 in the absence of the D2R
T1 sequence (P48549 1-501): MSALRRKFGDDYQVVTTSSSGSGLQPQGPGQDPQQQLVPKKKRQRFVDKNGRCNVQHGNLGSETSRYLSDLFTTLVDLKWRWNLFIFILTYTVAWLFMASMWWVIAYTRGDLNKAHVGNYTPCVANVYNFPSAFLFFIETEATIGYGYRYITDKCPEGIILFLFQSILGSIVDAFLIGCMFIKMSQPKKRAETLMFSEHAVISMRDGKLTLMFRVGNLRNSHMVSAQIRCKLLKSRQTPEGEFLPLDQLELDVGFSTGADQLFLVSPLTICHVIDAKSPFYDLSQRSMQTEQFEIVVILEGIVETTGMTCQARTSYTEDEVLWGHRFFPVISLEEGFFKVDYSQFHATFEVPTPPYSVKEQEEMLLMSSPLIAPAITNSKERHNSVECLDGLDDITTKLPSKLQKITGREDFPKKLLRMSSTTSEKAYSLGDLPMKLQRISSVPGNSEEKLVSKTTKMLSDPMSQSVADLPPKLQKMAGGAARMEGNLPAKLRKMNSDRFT
T1 sequence (P48544 1-419): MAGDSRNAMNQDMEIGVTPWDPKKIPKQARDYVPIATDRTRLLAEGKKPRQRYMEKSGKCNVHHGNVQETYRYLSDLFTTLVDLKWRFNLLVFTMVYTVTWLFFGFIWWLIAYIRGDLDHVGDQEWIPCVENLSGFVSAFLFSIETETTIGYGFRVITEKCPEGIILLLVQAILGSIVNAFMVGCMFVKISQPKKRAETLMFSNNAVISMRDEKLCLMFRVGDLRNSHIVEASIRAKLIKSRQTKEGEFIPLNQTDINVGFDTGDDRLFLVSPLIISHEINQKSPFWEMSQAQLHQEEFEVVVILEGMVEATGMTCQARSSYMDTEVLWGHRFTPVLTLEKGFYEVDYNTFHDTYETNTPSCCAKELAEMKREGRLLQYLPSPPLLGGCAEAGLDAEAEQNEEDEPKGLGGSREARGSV

WT D2R [1] = system: WT D2R; design: method as in PMID 29325769; settings: log value from radioligand binding; cited from earlier work
D2R = settings: in the presence of µM concentrations of DA; pre-incubation protocols; cited from earlier work
D2R E95A = system: D2R E95A; design: method as in PMID 29325769; settings: log values from pERK assay; cited from earlier work
WT D2R [2] = system: WT D2R; design: method as in PMID 29325769; settings: log values from pERK assay; cited from earlier work
D2R V91A = system: D2R V91A; design: method as in PMID 29325769; settings: log values from pERK assay; cited from earlier work
D2R S194A = system: D2R S194A; design: method as in PMID 29325769; settings: log values from pERK assay; cited from earlier work
D2R L94A = system: D2R L94A; design: method as in PMID 29325769; settings: log values from pERK assay; cited from earlier work

In the case of `N#Cc1ccc2c(c1)CN(CC[C@H]1CC[C@H](NC(=O)c3cc4ccccc4[nH]3)CC1)CC2` [SB269,652, N-((trans)-4-(2-(7-cyano-3,4-dihydroisoquinolin-2(1H)-yl)ethyl)cyclohexyl)-1H-indole-2-carboxamide], the “Negative Cooperativity of SB269,652 Interaction with DA” value (from here on “Negative Cooperativity”) (D2R S193A) is listed as “↑ (1.47 ± 0.15 *) ^b”, the “Ligand-mediated direct inhibition of GIRK currents (>10%)” value (GIRK1/4) is listed as “not observed” and the “Negative Cooperativity” value (WT D2R [1]) is listed as 0.54 ± 0.11. The “SB269,652 IC50 at the D2R in previous reports” value (D2R) was “high nM range”, the “Negative Cooperativity” value (D2R E95A) was “↓ 0.32 ± 0.14” and the “Negative Cooperativity” value (WT D2R [2]) was 1.23 ± 0.14. For the same molecule, the “Negative Cooperativity” value (D2R V91A) was “↓ 0.48 ± 0.16”, the “Negative Cooperativity” value (D2R S194A) was “↓ 0.52 ± 0.09” and the “Negative Cooperativity” value (D2R L94A) was “↓ 0.70 ± 0.08”.
